In ChEMBL document CHEMBL3739338, “Inhibition of carbonic anhydrase isoforms I, II, IV, VII and XII with carboxylates and sulfonamides incorporating phthalimide/phthalic anhydride scaffolds” (Bioorg Med Chem, 2016):

Experiments:
Carbonic anhydrase 2 = Carbonic anhydrase 2 (Homo sapiens, UniProt P00918); assay: Inhibition of human carbonic anhydrase-2 preincubated for 15 mins by stopped flow CO2 dehydration assay
Carbonic anhydrase 4 = Carbonic anhydrase 4 (Homo sapiens, UniProt P22748); assay: Inhibition of human carbonic anhydrase-4 preincubated for 15 mins by stopped flow CO2 dehydration assay
Chain of Carbonic anhydrase 4 (P22748 whole entry): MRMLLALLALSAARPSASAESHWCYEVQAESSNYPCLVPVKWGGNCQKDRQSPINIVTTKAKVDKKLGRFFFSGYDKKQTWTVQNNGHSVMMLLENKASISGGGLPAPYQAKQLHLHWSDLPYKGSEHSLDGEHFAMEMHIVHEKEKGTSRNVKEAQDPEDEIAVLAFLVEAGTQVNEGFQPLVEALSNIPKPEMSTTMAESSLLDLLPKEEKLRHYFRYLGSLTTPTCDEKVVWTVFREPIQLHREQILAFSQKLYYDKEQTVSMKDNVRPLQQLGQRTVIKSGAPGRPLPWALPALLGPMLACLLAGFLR

Carbonic anhydrase 1 = Carbonic anhydrase 1 (Homo sapiens, UniProt P00915); assay: Inhibition of human carbonic anhydrase-1 preincubated for 15 mins by stopped flow CO2 dehydration assay
Chain of Carbonic anhydrase 1 (P00915 whole entry): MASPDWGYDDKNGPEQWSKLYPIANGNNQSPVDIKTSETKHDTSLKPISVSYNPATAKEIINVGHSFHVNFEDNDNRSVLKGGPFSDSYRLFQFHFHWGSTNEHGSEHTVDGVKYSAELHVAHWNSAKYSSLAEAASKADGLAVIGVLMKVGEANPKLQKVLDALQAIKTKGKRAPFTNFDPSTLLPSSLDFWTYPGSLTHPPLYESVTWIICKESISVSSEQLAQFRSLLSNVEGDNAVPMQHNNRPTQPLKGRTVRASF

| Compound | Ki (Carbonic anhydrase 2) | Ki (Carbonic anhydrase 4) | Ki (Carbonic anhydrase 1) |
| --- | --- | --- | --- |
| Cc1ccc(NC(=O)c2ccc3c(c2)C(=O)OC3=O)c(C(=O)O)c1 | > 10 µM | – | – |
| CCOC(=O)c1ccc(N2C(=O)c3ccc(C(=O)Nc4ccccc4C(=O)O)cc3C2=O)cc1 | > 10 µM | – | > 10 µM |
| O=C(Nc1ccccc1C(=O)O)c1ccc2c(c1)C(=O)N(c1ccccc1)C2=O | > 10 µM | > 10 µM | > 10 µM |
| O=C(Nc1ccccc1C(=O)O)c1ccc2c(c1)C(=O)N(Cc1ccccc1)C2=O | > 10 µM | – | – |
| O=C(Nc1ccc(Cl)cc1C(=O)O)c1ccc2c(c1)C(=O)OC2=O | – | > 10 µM | – |
| O=C(O)c1ccc(N2C(=O)c3ccc(C(=O)Nc4ccccc4C(=O)O)cc3C2=O)cc1 | > 10 µM | – | > 10 µM |

Further lines, results first:

| Ki (Carbonic anhydrase 2) | Ki (Carbonic anhydrase 4) | Ki (Carbonic anhydrase 1) | Compound |
| --- | --- | --- | --- |
| > 10 µM | – | – | O=C(Nc1ccccc1C(=O)O)c1ccc2c(c1)C(=O)N(CCc1ccccc1)C2=O |
| > 10 µM | > 10 µM | > 10 µM | O=C(Nc1ccc(I)cc1C(=O)O)c1ccc2c(c1)C(=O)OC2=O |
| 0.0089 µM | – | – | NS(=O)(=O)c1ccc(N2C(=O)c3ccc(C(=O)Nc4ccccc4C(=O)O)cc3C2=O)cc1 |
| > 10 µM | > 10 µM | – | COc1cc(NC(=O)c2ccc3c(c2)C(=O)OC3=O)c(C(=O)O)cc1OC |
| > 10 µM | – | – | O=C(Nc1ccccc1C(=O)O)c1ccc2c(c1)C(=O)OC2=O |
| 0.0138 µM | – | – | NS(=O)(=O)c1ccc(CCN2C(=O)c3ccc(C(=O)Nc4ccccc4C(=O)O)cc3C2=O)cc1 |
| 0.0105 µM | – | – | NS(=O)(=O)c1ccc(CN2C(=O)c3ccc(C(=O)Nc4ccccc4C(=O)O)cc3C2=O)cc1 |
